Test results as given in US20030051262A1, “Animal models for neurodegenerative disease” (priority 1999, published 2003).
Peptide text beside a SMILES is read from it.

What was measured:
[1] = system: medial septum/vertical limb of the diagonal band (S/DB); assay: Histology of septal region after injection into S/DB; format: in vivo, rat; settings: for histological appearance of the septal area: 2 μl of 33 mM into S/DB, Example 2
Procedure: (§1) The experimental group (n=6 rats) received an injection of AChE peptide into the medial septum/vertical limb of the diagonal band (S/DB). Control rats (n=6 rats) received an equal amount of the vehicle, water, in the same way, while another group (n=5 rats) received an injection of the reference neurotoxin NMDA at an equivalent dose to that of AChE peptide (2 μl of 33 mM). Each injection was given slowly over 15 minutes through a 34 gauge stainless steel injection needle coupled by polyethylene tubing to a 10 μl Hamilton syringe. Co-ordinates used on the stereotaxic instrument (Kopf) were 0.7 mm anterior to bregma, 1.0 mm lateral to midline and 6.5 mm from skull surface at bregma. The incisor bar was set at −0.5 mm for all rats, resulting in approximately a level skull surface between the bregma and lambda sutures. The arm of the stereotaxic instrument was angled at 10 degrees to vertical to avoid damage to the sagittal sinus.
After a final weighing, rats were killed by stunning followed by decapitation. The hippocampus and cingulate/secondary motor cortex were rapidly removed and stored frozen at −80 degrees Celsius. The block of brain anterior to the hippocampus was placed in 30% sucrose formalin and left to fix for at least a week prior to sectioning on a microtome and staining with cresyl violet. Microscopical brain examination was subsequently performed as in earlier experiments.
Wistar rats were anaesthetised and injected as described in Example 2, with one of the following. AChE peptide, the equivalent peptide from BuChE, a scrambled version of the AChE peptide: HSWRAEVFHKYWSM, NMDA and water as a control. The number of rats in each group was between four and five.
Brain examination was performed as described in Example 2.

[2] = system: nucleus basalis of Meynert (NBM); assay: Serial choice reaction task (attention) after injection into NBM; format: in vivo, rat; settings: bilateral 2 μl of 16.5 mM into NBM, light stimulus 1.0 s
Procedure: Testing for loss of cognitive function reminiscent of loss of such function associated with Alzheimer's Disease in humans was carried out using a serial choice reaction task, a preferred form of task for testing for attentional deficits, as described by Higgs et al. (Higgs, S., Deacon, R. M. J. & Rawlins, J. N. P., European Journal of Neuroscience (2000)12, 1781-1788).
A rat testing cubicle with a retractable lever on the front wall was employed as illustrated in FIG. 11. The back wall was concave with three food magazines, one in each corner and one in the centre. A light was present within each corner magazine. Magazine entries were recorded by microswitches attached to panels covering the entrances. The entire apparatus was computer-controlled.
Rats are trained to press the lever when it is presented. […] The rat will find a reward (a 45 mg food pellet) respectively in the left, right or centre magazine tray.
A cohort of rats were trained on the attentional task (light stimulus duration 1.0 s). When performance was stable, they were divided into three matched groups, each with seven or more rats. Under deep anaesthesia, each rat was placed in a stereotaxic frame, with the incisor bar set at −3 mm to give a level head. Bilateral-injections, each of 2 μl, were made into the NBM area (see FIG. 13). The control group of rats received injections of water. […]

rat hippocampus = assay: Direct injection into rat hippocampus, histological effects (length of hippocampal cell layers destroyed); format: in vivo; settings: for extent of hippocampal damage: 68 mM in a volume of 1 μl into hippocampus
Procedure: AChE peptide was injected into rat hippocampus and subsequently the brains were examined under a light microscope. The hippocampus was-chosen as the most suitable brain structure in which to show effects of AChE peptide as it is very vulnerable to neurotoxins and damage from other causes such as ischaemia. Post mortem histological. examination or pre mortem brain scans reveal prominent decay of the hippocampus in Alzheimer brains.
Male Wistar or Dark Agouti (DA) rats were anaesthetised with Avertin and injected with 0.5 μl of 2 mM AChE peptide (DA rats received 1 μl of 1 mM) in the right hippocampus. An equivalent control injection was made in the left hippocampus. After recovery from the anaesthetic and a few days in their home cages rats were deeply anaesthetised and transcardially perfused with formalin preservative, the brains removed and prepared for microscopical examination. Sections of 50 μm were cut on a sliding microtome and stained with cresyl violet to show the nerve cells. The amount of neural damage was estimated by counting the length of hippocampal cell layers destroyed (quantified in terms of microscope graticule units).
A small number of injections were made into the hippocampus of DA rats with the reference neurotoxin NMDA (N-methyl D-aspartic acid) at an equivalent concentration to that of AChE peptide used above (1 μl of 1 mM).
(§2) Since the concentration of NMDA used to produce experimental neural destruction (as a tool in experimental psychology to examine the function of a particular brain region) is much higher (typically 68 mM) a small number of rats were injected with this larger amount, in a volume of 1 μl, in comparison with an equivalent amount of AChE peptide.

[3] = system: medial septum/vertical limb of the diagonal band (S/DB); assay: Delayed non-matching to sample (DNMS) T-maze task after injection into S/DB; format: in vivo, rat; settings: 2 μl of 33 mM into S/DB
Excerpt: Wistar rats (175-200 g) were received from the suppliers (Harlan UK) and acclimated to the laboratory for three weeks before being trained on a delayed non-matching to sample (DNMS) task on an elevated wooden T-maze. In this task they are mildly food deprived and receive food pellets with enhanced flavour and nutritional content as rewards.
The DNMS task capitalises on the rat's innate tendency to alternate which cross arm of the T-maze it runs along; this derives from its normal foraging behaviour, where returning to a place from which it has recently eaten all the food is unlikely to pay dividends.
Each rat is placed at the start of the stem of the T-maze and allowed to run to retrieve a food pellet at the end of one cross arm. Access to the other cross arm is blocked. This block is then removed and the rat returned to the start. Normal rats choose to go to the opposite arm to that recently visited on this free choice part of the trial. After being allowed to consume their reward (if a correct choice was made) they are returned to their home cage and their cagemate is then tested in the same way. Typically a squad of ten rats is run in a “round robin’ fashion, so up to fifteen minutes intervenes between one trial and the next. Normal rats excel at this task once initial training (chiefly to familiarise them with the new smells on the maze and the elevated position off the floor) is complete.
The rats in the present experiment were given forty trials on the T-maze, then divided into groups matched for performance (all were above 90% correct). They were returned to unlimited food for a few days before undergoing surgery under Avertin anaesthesia.
The experimental group (n=6 rats) received an injection of AChE peptide into the medial septum/vertical limb of the diagonal band (S/DB). Control rats (n=6 rats) received an equal amount of the vehicle, water, in the same way, while another group (n=5 rats) received an injection of the reference neurotoxin NMDA at an equivalent dose to that of AChE peptide (2 μl of 33 mM). […]

[4] = system: medial septum/vertical limb of the diagonal band (S/DB); assay: Locomotor activity cages after injection into S/DB; format: in vivo, rat; settings: 2 μl of 33 mM into S/DB, two successive days
Procedure: as §1
After completion of T-maze testing rats were returned to a free feeding regimen before being tested on two successive days in standard locomotor activity cages. Each cage was equipped with two infrared beams to detect movement.

[5] = system: choline acetyltransferase; assay: Cortical choline acetyltransferase (ChAT) level after NBM lesion; format: in vivo, rat; settings: bilateral 2 μl of 16.5 mM into NBM
Procedure: After a period of post-operative testing, the rats were terminally anaesthetised and perfused intracardially with ice cold saline. The brain was removed and a portion of cortex (including the frontal, parietal and temporal areas, but excluding visual and cingulate cortex) was removed from each hemisphere and frozen. The remaining brain was preserved in formalin and subsequently coronally sectioned and stained with cresyl violet. The position and extent of the lesions was then determined by microscopical examination.
The frozen cortical tissue was used to determine the effectiveness of the NBM lesion. Using the method of Fonnum (J. Neurochem. (1975) 24, 407-409), the levels of the acetylcholine synthesising enzyme, choline acetyltransferase, (ChAT) were measured.
Since a proportion of this enzyme is due to the cholinergic innervation from the NBM, a decrease of ChAT would corroborate visualisation of a lesion at the site of injection in the NBM itself.

[6] = Post-operative body weight after injection into S/DB; format: in vivo, rat; settings: 2 μl of 33 mM into S/DB, Wistar rats, weighed daily
Procedure: as §1
Post-operatively the rats were weighed every day. Approximately two weeks after operation they were again food restricted and tested for performance on the T-maze.

mice = assay: Injection of AChE peptide into mice; format: in vivo
[7] = Body weight and condition after high-dose hippocampal injection; format: in vivo, rat; settings: higher dose (68 mM, 1 μl) into hippocampus, one of two rats, 5 days after surgery
Procedure: as §2
One of the two rats given AChE peptide at this higher dose looked very sick 5 days after the surgery and was therefore deeply anaesthetised and the brain prepared for microscopy. […] The other rat survived 11 days until it was finally anaesthetised, but it too lost some weight. This supported informal observations from the earlier, low dose experiment that AChE peptide treated rats might lose more weight than is normal after such surgery.

SMILES | histological appearance of the septal area [1] | proportion of correct lever-light trials [2] | extent of hippocampal damage (rat hippocampus) | histological examination of hippocampal brain sections (rat hippocampus; DA rats, 1 μl of 1 mM into hippocampus) | T-maze performance in subsequent trials ([3]; after first block of ten trials) | T-maze performance with 45 second delay between sample and choice ([3]; delay about 45 s) | T-maze performance, twenty massed trials ([3]; massed trials) | locomotor activity (ANOVA, group effect) [4] | cholinergic loss in the cortex as measured by HPLC ChAT level [5] [%] | post-operative weight loss and recovery [6] | tissue loss in the medial septal region ([1]; Example 3, Wistar rats injected as in Example 2) | lesion size relative to NMDA ([1]; S/DB region) | time for lesion to form after introduction into S/DB ([1]; S/DB region, time course by MRI) | mean units of damage (length of hippocampal cell layers destroyed) (rat hippocampus; Wistar rats, 0.5 μl of 2 mM in right hippocampus, P=0.008 vs control side) [units] | units of damage (length of hippocampal cell layers destroyed, microscope graticule units) (rat hippocampus; most symmetrically injected DA rat, 1 μl of 1 mM in right hippocampus) [units] | neurotoxic effects in mice (mice) | body weight after surgery [7]
CN[C@H](CC(=O)O)C(=O)O [NMDA, N-methyl D-aspartic acid] | only small effects | didn't produce a significant reduction | more widespread | small areas of neural damage | returned to control levels | non-significant decrease | little effect | not significantly different | 12.1 | lost more weight than controls | – | – | – | – | – | – | –
CSCC[C@H](NC(=O)[C@H](Cc1ccc(O)cc1)NC(=O)[C@H](CO)NC(=O)[C@H](CO)NC(=O)[C@H](Cc1c[nH]c2ccccc12)NC(=O)[C@H](CCCNC(=N)N)NC(=O)[C@H](Cc1c[nH]cn1)NC(=O)[C@H](Cc1ccccc1)NC(=O)[C@H](CCC(=O)O)NC(=O)[C@H](C)N)C(=O)N[C@H](C(=O)N[C@@H](Cc1c[nH]cn1)C(=O)N[C@@H](Cc1c[nH]c2ccccc12)C(=O)N[C@@H](CCCCN)C(=O)O)C(C)C [AChE peptide, AEFHRWSSYMVHWK] (H-AEFHRWSSYMVHWK-OH) | striking damage | – | local hippocampal damage | – | – | – | – | – | – | statistically significantly slower than either controls or NMDA rats to recover their weight | Significant tissue loss | an order of magnitude larger | less than an hour | 155.3 | 119 | Neurotoxic effects have also been observed | Severe body weight loss
